Results as given in patent US20220096450A1, “Compounds and Methods for Treating or Preventing Heart Failure” (DREXEL UNIVERSITY, priority 2019, published 2022).

How the values were obtained:
[1] = Cell Counting Kit-8 cytotoxicity assay in H9C2 cells; format: cell-based; details: rat
Experimental: (§1) H9C2 cells, a rat ventricular cardiomyoblast cell line were obtained from ATCC (CRL-1446) and maintained in Dulbecco's modified Eagle's medium (DMEM) containing 10% FBS and 1× GlutaMAX. For hypertrophy studies, the cells were plated onto 4-well glass chamber slides precoated with poly-D-lysine. The maintenance medium was aspirated after 24 h and the cells were serum-starved overnight in DMEM containing 1% FBS and 1× GlutaMAX and then incubated for 48 h in fresh serum-starved medium containing isoproterenol, as indicated.
(§2) Cytotoxicity assays were conducted under the same conditions used for hypertrophy assays with NVCMs or H9C2 cells, as described elsewhere herein.

[2] = Cell Counting Kit-8 cytotoxicity assay in NVCMs; format: cell-based; details: Sprague-Dawley, rat, rat neonatal ventricular cardiomyocytes (NVCMs)
Excerpt: (§3) Rat neonatal ventricular cardiomyocytes (NVCMs) were isolated from the hearts of 1-2 day old Sprague-Dawley rats (Charles River) in 50-90% yield (70-95% viability) by following the protocol described by Golden et al. (Golden et al., 2012, in Cardiovascular Development. Methods in Molecular Biology (Methods and Protocols), vol 843 (Peng, X., Antonyak, M., Eds.) pp 205-214, Springer, Totowa, N.J.).
(§4) NVCMs are maintained in Dulbecco's modified Eagle's medium (DMEM:F12) containing 20% fetal bovine serum (FBS), 5% horse serum, 1× GlutaMAX, and 2 μg/mL insulin. For hypertrophy studies, cells were plated onto 4-well glass chamber slides, precoated with poly-D-lysine and laminin. The maintenance medium was aspirated after incubation for 72 h. The cells were serum-starved overnight in DMEM:F12 containing 1% FBS, 1× GlutaMAX, and 2 ug/mL insulin and then incubated for 24 h in fresh serum-starved medium containing angiotensin II, as indicated.
as §2

[3] = test system: mitochondrial CoQ-dependent respiratory complex I; assay: Biochemical selectivity assay, respiratory complex I; set-up: species or system mouse; details: highest concentration tested 11 μM
Experimental: (§5) Inhibitor selectivity was assessed using mouse muscle homogenate preparations that contain disrupted mitochondrial membranes, a feature that makes substrates accessible to each of the membrane-bound respiratory complexes. Spectrophotometric assays for each complex are conducted in the presence or absence of a target-specific inhibitor (FIG. 9) to correct for nonspecific substrate oxidation, as previously described (Spinazzi et al., 2012, Nature Protocols 7: 1235-1246). Thus, the activity of complex I is determined by monitoring the oxidation of NADH in the absence or presence of rotenone. Complex III activity is measured based on the rate of cytochrome C reduction observed in the presence or absence of antimycin A. The reaction catalyzed by complex II produces decylubiquinol (decylCoQH2), which rapidly reduces DCIP.

[4] = test system: mitochondrial CoQ-dependent respiratory complex III; assay: Biochemical selectivity assay, respiratory complex III; set-up: species or system mouse; details: highest concentration tested 11 μM
Experimental: as §5

H9C2 cells = assay: Isoproterenol-induced hypertrophy assay in H9C2 cells; format: cell-based, rat; details: isoproterenol 100 μM 24 h, then 50 μM 24 h; 10.5 μM FC9402
Experimental: as §1, with “indicated. […] Images were acquired using a FV3000 Olympus Confocal Microscope and analyzed using ImageJ. Cell surface area was determined by encircling the outer membrane of 30-50 cells per field in 6-10 field images for a total of 500 cells per condition.” for “indicated.”

[5] = test system: rat neonatal ventricular cardiomyocytes (NVCMs); assay: Angiotensin II-induced hypertrophy assay in NVCMs; format: cell-based; details: 200 nM Ang II 24 h; 10 μM FC9402
Excerpt: as §3
as §4, with “indicated. […]” for “indicated.”

COc1nc(-c2ncccc2C)cc(-c2ccc(N)cc2)c1C#N [FC9402, 4-(4-aminophenyl)-2-methoxy-6-(3-methylpyridin-2-yl)pyridine-3-carbonitrile]
CC50 at 48 h [1]: 56 ± 10 µM | CC50 at 24 h [2]: 27.9 ± 2.6 µM | inhibition of respiratory complex I [3]: did not inhibit | inhibition of respiratory complex III [4]: did not inhibit | hypertrophic response (cell surface area) (H9C2 cells): mitigates the hypertrophic response | angiotensin II-induced hypertrophy (cell surface area) [5]: prevents angiotensin II-induced hypertrophy
